We go through two compounds from EP2608671B1, “COMPOUNDS FOR TREATMENT OF CANCER” (Gtx, Inc., priority 2010, dated 2012).

The subject of one data set is PC-3. Kind of data set: cells. The following applies: read-out: IC50 PC3. The source says:
The only compounds which belong to the invention are the ones falling under the scope of formula (XI).
Cells were stained with SRB solution.
Cells. […] Cells between the third and fifth passages were used for experiments.
Cell growth inhibition studies. […] Cells were stained with sulphorhodamine B (SRB) solution.

Data set [1] concerns HUVECs (Human Umbilical Vein Endothelial Cells). The data set is classed as cell-based.
A further data set deals with T47D. The data set is classed as cell-based, human.
In the next data set the test system is HUVEC monolayers. The data set is described as follows: Endothelial monolayer permeability assay. The data set is classed as cell-based, human. As to conditions: leakage of dextran after 1, 2, 4 h.
The next data set relates to CaCO-2. As to conditions: human.

For orientation: IC50 means the concentration needed to halve the response being measured. `COc1cccc2c1C(=O)c1c(O)c3c(c(O)c1C2=O)C[C@@](O)(C(=O)CO)C[C@@H]3O[C@H]1C[C@H](N)[C@H](O)[C@H](C)O1` [Doxorubicin]: the IC50 is 397 nM in the data set with PC-3, 274 nM in data set [1] (read-out: IC50 HUVEC) and 353 nM with T47D. Also, the “times more active against endothelial cells than against cancer cells” value in data set [1] (Table 24) is given as “not specific to endothelial cells”. In addition, the “Selectivity ratio*, cancer cells/ HUVEC” value in data set [1] (mean IC50 in PC3 and T47D cells over HUVEC) came to 1.4. Further, the “permeability of endothelial cell monolayer” value in the data set on HUVEC monolayers is recorded as “did not induce any change”.
Regarding `CC(C)NCC(O)COc1cccc2ccccc12` (stereo not shown) [Propranolol], in the data set on CaCO-2, the “Papp(A→B) in CaCO-2 assay” value is “Propranolol (19) 10^-6 cm/s”.
